Like-named read-outs stand apart in the source and are kept apart here.
Legend:
Format in all cases: in vivo
[1] = system: barnyardgrass (Echinochloa crus-galli); assay: Test A greenhouse herbicide test, pre- and postemergence; conditions: for pest or weed control at 1000 g/ha: Echinochloa crus-galli, 240 h
Summary of the method: (§1)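 Seeds sown in loam–sand blend got a preemergence directed soil spray of compound in non-phytotoxic solvent with surfactant. Postemergence treatment was given at 2–10 cm, one- to two-leaf stage. After ~10 d in greenhouse, injury was rated visually vs untreated controls, 0 (no effect) to 100 (complete control).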

corn (Zea mays) = assay: as above
Summary of the method: as §1

[2] = system: crabgrass, large (large crabgrass, Digitaria sanguinalis); assay: as above; conditions: Digitaria sanguinalis, post-emergence, 240 h; Postemergence, 1000 g ai/ha; 0 to 100 scale, 0 is no effect, 100 is complete control; read-out: Crabgrass, Large plant response rating
Summary of the method: as §1

[3] = system: foxtail, giant (giant foxtail, Setaria faberii); assay: as above; conditions: for pest or weed control at 1000 g/ha: Setaria faberi, 240 h
Summary of the method: as §1

[4] = system: momingglory (Ipomoea spp.); assay: as above; conditions: Ipomoea, 240 h, 1000 g ai/ha, 0 to 100 scale
Summary of the method: as §1

[5] = system: pigweed (Amaranthus retroflexus); assay: as above
Summary of the method: as §1

[6] = system: velvetleaf (Abutilon theophrasti); assay: as above; conditions: Abutilon theophrasti, pre-emergence, 240 h; Preemergence, 1000 g ai/ha; 0 to 100 scale, 0 no effect, 100 complete control; read-out: Plant response rating, Velvetleaf
Summary of the method: as §1

[7] = system: wheat (Triticum aestivum); assay: as above; conditions: for plant injury at 1000 g/ha: Triticum aestivum, 240 h; for plant injury at 1000 g/ha / Wheat plant response rating: 1000 g ai/ha
Summary of the method: as §1

kochia (Kochia scoparia) = assay: as above; conditions: for Kochia plant response rating: 0 is no effect, 100 is complete control
Summary of the method: as §1

[8] = system: ragweed (common ragweed, Ambrosia elatior); assay: as above; conditions: for Ragweed plant response rating: 0 is no effect, 100 is complete control
Summary of the method: as §1

[9] = system: ryegrass, Italian (Italian ryegrass, Lolium multiflorum); assay: as above; conditions: for Ryegrass, Italian plant response rating: 0 is no effect, 100 is complete control
Summary of the method: as §1

[10] = system: blackgrass (Alopecurus myosuroides); assay: Test A greenhouse herbicide test, postemergence; conditions: for Blackgrass plant response rating: 1000 g ai/ha, 0 is no effect, 100 is complete control
Summary of the method: (§2)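 Greenhouse postemergence test: formulated chemicals sprayed on one- to two-leaf plants (2 to 10 cm), grown in loam soil blended with sand. Injury assessed visually about 10 d later against untreated controls, scored 0 (no effect) to 100 (complete control).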

[11] = system: galium (catchweed bedstraw, Galium aparine); assay: Test A greenhouse herbicide test, postemergence; conditions: for Galium plant response rating: 1000 g ai/ha, 0 is no effect, 100 is complete control
Summary of the method: as §2

[12] = system: barnyardgrass (Echinochloa crus-galli); assay: Test B flooded paddy test; conditions: 250 g ai/ha, Flood; visual rating on scale of 0 to 100 where 0 is no effect and 100 is complete control; 13 to 15 d after treatment
Summary of the method: (§3)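 Plants at the 2-leaf stage were flooded to 3 cm above soil, and test compounds were applied directly into the paddy water, which was held at that depth throughout. After 13 to 15 d in a greenhouse, injury was rated visually against untreated controls on a 0–100 scale (0 no effect, 100 complete control).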

[13] = system: ducksalad (Heteranthera limosa); assay: Test B flooded paddy test; conditions: 250 g ai/ha, Flood; visual rating on scale of 0 to 100 where 0 is no effect and 100 is complete control; 13 to 15 d after treatment
Summary of the method: as §3

rice (Oryza sativa) = assay: Test B flooded paddy test; conditions: 250 g ai/ha, Flood; visual rating on scale of 0 to 100 where 0 is no effect and 100 is complete control; 13 to 15 d after treatment
Summary of the method: as §3

[14] = system: sedge, umbrella (small-flower umbrella sedge, Cyperus difformis); assay: Test B flooded paddy test; conditions: 250 g ai/ha, Flood; visual rating on scale of 0 to 100 where 0 is no effect and 100 is complete control; 13 to 15 d after treatment
Summary of the method: as §3

[15] = Postemergence, 125 g ai/ha, 0 to 100 scale, 0 no effect, 100 complete control
[16] = Postemergence, 500 g ai/ha, visual rating after approx. 10 d, 0 to 100 scale (0 no effect, 100 complete control)
[17] = Preemergence, 125 g ai/ha, visual injury rating, 0 to 100 scale (0 no effect, 100 complete control), approx. 10 d
[18] = Preemergence, 500 g ai/ha, 0 to 100 scale where 0 is no effect and 100 is complete control
[19] = 125 g ai/ha, 0 to 100 scale, 0 no effect, 100 complete control
[20] = 500 g ai/ha, visual rating after approx. 10 d, 0 to 100 scale (0 no effect, 100 complete control)
[21] = Postemergence, 1000 g ai/ha, 0 to 100 scale, 0 is no effect, 100 is complete control
[22] = Preemergence, 1000 g ai/ha, 0 to 100 scale, 0 no effect, 100 complete control
[23] = Postemergence, 1000 g ai/ha, 0 to 100 scale
[24] = Postemergence, 0 to 100 scale, 0 is no effect, 100 is complete control

Cc1nn(C)c(=O)c(-c2c(C)oc3ccc(Cl)cc23)c1O [Compound 6, 4-(5-chloro-2-methyl-3-benzofuranyl)-5-hydroxy-2,6-dimethyl-3 (2H)-pyridazinone]
10%: pest or weed control at 1000 g/ha ([4]; pre-emergence, Preemergence, 0 no effect, 100 complete control, read-out: Plant response rating, Morningglory)
50%: pest or weed control at 1000 g/ha [2] | pest or weed control at 1000 g/ha ([3]; pre-emergence, Preemergence, 1000 g ai/ha, 0 to 100 scale, 0 no effect, 100 complete control, read-out: Plant response rating, Foxtail, Giant) | pest or weed control at 1000 g/ha ([5]; Amaranthus retroflexus, post-emergence, 240 h, Postemergence, 1000 g ai/ha, 0 to 100 scale, 0 is no effect, 100 is complete control, read-out: Pigweed plant response rating)
20%: pest or weed control at 1000 g/ha [6] | plant injury at 1000 g/ha ([7]; post-emergence, Postemergence, 0 to 100 scale, 0 is no effect, 100 is complete control, read-out: Wheat plant response rating)
0%: plant injury at 1000 g/ha (corn (Zea mays); Zea mays, post-emergence, 240 h, Postemergence, 1000 g ai/ha, 0 to 100 scale, 0 is no effect, 100 is complete control, read-out: Corn plant response rating) | plant injury at 1000 g/ha ([7]; pre-emergence, Preemergence, 0 to 100 scale, 0 no effect, 100 complete control, read-out: Plant response rating, Wheat)
100%: pest or weed control at 1000 g/ha ([1]; pre-emergence, Preemergence, 1000 g ai/ha, 0 to 100 scale, 0 no effect, 100 complete control, read-out: Plant response rating, Barnyardgrass)
30%: Corn plant response rating (crop injury, 0 = no effect, 100 = complete kill) at 1000 g/ha (corn (Zea mays); Zea mays, pre-emergence, 240 h, Preemergence, 1000 g ai/ha, 0 to 100 scale, 0 no effect, 100 complete control)
70%: pest or weed control at 1000 g/ha ([1]; post-emergence, Postemergence, 1000 g ai/ha, 0 to 100 scale, 0 is no effect, 100 is complete control, read-out: Barnyardgrass plant response rating) | pest or weed control at 1000 g/ha ([3]; post-emergence, Postemergence, 1000 g ai/ha, 0 to 100 scale, 0 is no effect, 100 is complete control, read-out: Foxtail, Giant plant response rating)
40%: pest or weed control at 1000 g/ha ([4]; post-emergence, Postemergence, 0 is no effect, 100 is complete control, read-out: Morningglory plant response rating)

Cc1cc(C)c2sc(C)c(-c3c(OC(=O)N4CCOCC4)c(C)nn(C)c3=O)c2c1 [Compound 174]
10: Plant response rating, Barnyardgrass [1, 16] | Plant response rating, Foxtail, Giant [3, 16] | Plant response rating, Foxtail, Giant [3, 18] | Plant response rating, Ryegrass, Italian [9, 15]
20: Plant response rating, Pigweed [5, 18] | Plant response rating, Ragweed [8, 15] | Plant response rating, Ragweed [8, 16]
80: Plant response rating, Galium [11, 20]
60: Plant response rating, Pigweed [5, 16]
40: Plant response rating, Pigweed [5, 15] | Plant response rating, Ryegrass, Italian [9, 16]
0: Plant response rating, Barnyardgrass [1, 15] | Plant response rating, Barnyardgrass [1, 17] | Plant response rating, Barnyardgrass [1, 18] | Plant response rating, Corn (corn (Zea mays); [15]) | Plant response rating, Corn (corn (Zea mays); [16]) | Plant response rating, Foxtail, Giant [3, 15] | Plant response rating, Foxtail, Giant [3, 17] | Plant response rating, Kochia (kochia (Kochia scoparia); [15]) | Plant response rating, Kochia (kochia (Kochia scoparia); [16]) | Plant response rating, Kochia (kochia (Kochia scoparia); [17]) | Plant response rating, Kochia (kochia (Kochia scoparia); [18]) | Plant response rating, Pigweed [5, 17] | Plant response rating, Ragweed [8, 17] | Plant response rating, Ragweed [8, 18] | Plant response rating, Ryegrass, Italian [9, 17] | Plant response rating, Ryegrass, Italian [9, 18] | Plant response rating, Wheat [7, 15] | Plant response rating, Wheat [7, 16] | Plant response rating, Blackgrass [10, 19] | Plant response rating, Blackgrass [10, 20] | Plant response rating, Barnyardgrass [12] | Plant response rating, Ducksalad [13] | Plant response rating, Rice (rice (Oryza sativa)) | Plant response rating, Sedge, Umbrella [14]
30: Plant response rating, Galium [11, 19]

C#CCOc1c(C)nn(C)c(=O)c1-c1cccc2ccccc12 [Compound 179]
50: Plant response rating, Ragweed [8, 22]
10: Barnyardgrass plant response rating [1, 21] | Corn plant response rating (corn (Zea mays); [21]) | Foxtail, Giant plant response rating [3, 21] | Kochia plant response rating (kochia (Kochia scoparia); [23])
0: Plant response rating, Barnyardgrass [1, 22] | Pigweed plant response rating [5, 21] | Wheat plant response rating [7, 24] | Plant response rating, Barnyardgrass [12] | Plant response rating, Ducksalad [13] | Plant response rating, Rice (rice (Oryza sativa)) | Plant response rating, Sedge, Umbrella [14]
30: Plant response rating, Foxtail, Giant [3, 22] | Plant response rating, Kochia (kochia (Kochia scoparia); [22]) | Plant response rating, Ryegrass, Italian [9, 22]
40: Ragweed plant response rating [8, 23] | Blackgrass plant response rating ([10]; 0 to 100 scale)
90: Galium plant response rating ([11]; 0 to 100 scale)
70: Ryegrass, Italian plant response rating [9, 23]
80: Plant response rating, Pigweed [5, 22]

Cc1nn(C)c(=O)c(-c2cccc3ccccc23)c1OCC(=O)C1CC1 [Compound 181]
80: Ryegrass, Italian plant response rating [9, 23] | Galium plant response rating ([11]; 0 to 100 scale)
0: Barnyardgrass plant response rating [1, 21] | Plant response rating, Barnyardgrass [1, 22] | Corn plant response rating (corn (Zea mays); [21]) | Foxtail, Giant plant response rating [3, 21] | Plant response rating, Foxtail, Giant [3, 22] | Kochia plant response rating (kochia (Kochia scoparia); [23]) | Wheat plant response rating [7, 24] | Plant response rating, Barnyardgrass [12] | Plant response rating, Ducksalad [13] | Plant response rating, Rice (rice (Oryza sativa)) | Plant response rating, Sedge, Umbrella [14]
30: Pigweed plant response rating [5, 21] | Plant response rating, Pigweed [5, 22] | Ragweed plant response rating [8, 23]
60: Plant response rating, Ryegrass, Italian [9, 22]
10: Plant response rating, Kochia (kochia (Kochia scoparia); [22]) | Plant response rating, Ragweed [8, 22]
20: Blackgrass plant response rating ([10]; 0 to 100 scale)

Reference: US10597388B2, “Pyridazinone herbicides” (FMC CORPORATION, priority 2014, dated 2020)
